PubChem BioAssay (NCI)
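The compound was tested at five concentrations on cells cultured in 96-well plates, with a 48-hour exposure period. TGI: total growth inhibition.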

Assays:
Test in all cases: inhibition of tumour cell growth, NCI panel, 48 h
KM12 colon = test system: KM12 colon
SK-MEL-2 melanoma = test system: SK-MEL-2 melanoma
NCI-H226 lung = test system: NCI-H226 lung
A498 renal = test system: A498 renal
DLD-1 colon = test system: DLD-1 colon
XF 498 CNS = test system: XF 498 CNS
M19-MEL melanoma = test system: M19-MEL melanoma
KM20L2 colon = test system: KM20L2 colon
LXFL 529 NSCLC = test system: LXFL 529 NSCLC
DMS 114 small cell lung = test system: DMS 114 small cell lung
DMS 273 small cell lung = test system: DMS 273 small cell lung
HOP-18 NSCLC = test system: HOP-18 NSCLC
SNB-78 CNS = test system: SNB-78 CNS

SMILES	TGI (KM12 colon) [µM]	TGI (SK-MEL-2 melanoma) [µM]	TGI (NCI-H226 lung) [µM]	TGI (A498 renal) [µM]	further results
CO/C(=N\N=C\c1ccc(OC)cc1OC)c1ccncc1	> 10	> 10	> 10	> 10	–
Cn1c(=O)c2c(nc(C[N+]3([O-])CCOCC3)n2C)n(C)c1=O	> 100	> 100	> 100	–	TGI (DLD-1 colon): > 100 µM; TGI (XF 498 CNS): > 100 µM; TGI (M19-MEL melanoma): > 100 µM; TGI (KM20L2 colon): > 100 µM; TGI (LXFL 529 NSCLC): > 100 µM; TGI (DMS 114 small cell lung): > 100 µM; TGI (DMS 273 small cell lung): > 100 µM
CC1(C)C=[N+]([O-])C(C)(C)N1	> 100	> 100	> 100	–	–
COc1ccc(C2CC(=O)Oc3ccccc3O2)cc1 (stereo not drawn)	> 100	–	> 100	–	–
CCCC(=O)N/S(=N/S(=O)(=O)c1ccc(Cl)cc1)C(Cl)(Cl)Cl (stereo not drawn)	> 100	> 100	> 100	> 100	–
O=C1Nc2ccccc2[C@]12C[C@H]2c1ccccn1	> 100	> 100	> 100	> 100	–
NC1=CC(C(=O)c2ccncc2)c2nc3ccccc3nc21 (stereo not drawn)	> 100	> 100	> 100	> 100	–
COc1cccc(-c2cccc(SC)n2)n1	> 100	> 100	31.6	–	–
COc1cc(/C=C2/SC(c3ccccc3)N(c3ccc(Cl)cc3)C2=O)cc(OC)c1OC (stereo not drawn)	> 100	> 100	> 100	> 100	–
COC(=O)/C(C#N)=C1\NC(=O)CC(c2ccccc2)C1C#N (stereo not drawn)	> 100	> 100	> 100	–	–
CS(=O)(=O)c1[nH]nc2[nH]c(=O)[nH]c(=O)c12	> 10	> 10	> 10	> 10	–
O=C1/C(=C/c2ccc(Cl)cc2)NC(=S)N1CN1CCOCC1	> 100	> 100	> 100	> 100	–
O=C1SC(c2ccc(Cl)cc2)(c2ccc(Cl)cc2)c2ccccc21	> 100	77.5	> 100	> 100	–
CC1(C)OC(=O)C(C)(C)OC1=O	> 100	> 100	> 100	> 100	–
COC1C=C(NCC2(CO)CCC2)NC(N)=N1 (stereo not drawn)	> 100	> 100	> 100	> 100	–
C[C@]12CC(c3ccccc3O1)C(C#N)C(=O)N2 (stereo partly drawn)	> 100	> 100	> 100	> 100	–
c1ccc([C@@H]2N[C@@]3(CO[Si](c4ccccc4)(c4ccccc4)c4ccccc4)CC[C@H]4CN[C@@H]2[C@H]43)cc1	12.4	35.3	27.5	30.4	–
CC(=O)O[C@H]1C(=O)[C@@]2(C)[C@H]([C@H](OC(=O)c3ccc([N+](=O)[O-])cc3)[C@]3(O)C[C@H](OC(=O)[C@H](O)[C@@H](NC(=O)c4ccccc4)c4ccccc4)C(C)=C1C3(C)C)[C@]1(OC(C)=O)CO[C@@H]1C[C@@H]2O	> 25	–	> 25	> 25	–

SMILES	TGI (KM12 colon) [µM]	TGI (SK-MEL-2 melanoma) [µM]	TGI (NCI-H226 lung) [µM]	TGI (A498 renal) [µM]	further results
COc1ccc2nc3cc([N+](=O)[O-])ccc3c(NNc3ccc(Cl)cc3)c2c1	> 100	59.4	26	0.221	–
OCCSCc1cc2c(O)c(c1)Cc1cc(CSCCO)cc(c1O)Cc1cc(CSCCO)cc(c1O)Cc1cc(CSCCO)cc(c1O)C2	17.1	5.25	37.5	17.3	–
COc1ccc(C2CCC(Cl)(OC)CC2C=O)cc1 (stereo not drawn)	> 100	> 100	> 100	> 100	TGI (DLD-1 colon): > 100 µM; TGI (HOP-18 NSCLC): > 100 µM; TGI (M19-MEL melanoma): > 100 µM; TGI (KM20L2 colon): > 100 µM; TGI (LXFL 529 NSCLC): > 100 µM; TGI (DMS 114 small cell lung): 66.7 µM; TGI (DMS 273 small cell lung): > 100 µM
CCCCSC1=N/C(=C\c2ccco2)C(=O)N1	> 100	> 100	> 100	> 100	–
COc1ccc2c(c1)N(C(C)=O)CN1C(=O)CCC21 (stereo not drawn)	> 100	> 100	> 100	> 100	–
Nc1nc(Cl)cc(NCC2(CO)CCC2)n1	> 100	> 100	> 100	–	–
N#CC1=C(C#N)/C(=C(\C#N)C(C#N)C#N)N=C1N	> 100	31.6	97.3	65.4	–
CN1CC2=C(NC(=S)NC2c2ccc(Cl)cc2)/C(=C/c2ccc(Cl)cc2)C1 (stereo not drawn)	38.2	30.2	–	–	–
COc1ccc(Nc2nc(N)c(C(=O)c3ccc(OC)cc3)s2)cc1	–	> 55.4	75.8	> 64.7	–
CCOC(=O)C1=C(O)c2ccccc2C(=O)C1=O	> 100	> 100	> 100	> 100	TGI (DLD-1 colon): > 100 µM; TGI (HOP-18 NSCLC): > 100 µM; TGI (XF 498 CNS): > 100 µM; TGI (M19-MEL melanoma): 54.4 µM; TGI (DMS 114 small cell lung): > 100 µM; TGI (SNB-78 CNS): > 100 µM; TGI (DMS 273 small cell lung): > 100 µM
CO[C@@](c1ccccc1)(c1nc(C#N)c(N)o1)C(F)(F)F	> 100	> 100	> 100	> 100	–
Cn1cnc2c(OCC3CCCCC3)nc(N)nc21	> 100	> 100	> 100	–	–
CC1(C)[C@@H]2C[C@H]1C(Cc1ccc(C[C@H]3c4cc(-c5ccccn5)ncc4[C@H]4C[C@@H]3C4(C)C)cc1)c1cc(-c3ccccn3)ncc12 (stereo partly drawn)	38.4	> 100	–	7.99	–
O=c1n(-c2ccccc2)c(=O)n2n1C1CCC2CC1	> 100	> 100	> 100	> 100	–
CC1(C)C=C(/C=N/Nc2ccc(Br)cc2)C(C#N)=C(O)C1(C#N)C#N	> 100	–	> 100	–	–
Cc1cc(NC(=O)C(=O)Cc2cnc3ccccc3n2)c(S(=O)(=O)O)cc1Cl	> 100	> 100	> 100	> 100	–
CCOC(=O)c1nnsc1NC(=O)Nc1ccc(Cl)cc1	> 100	> 100	> 100	–	–
CC1=NN2C(=O)CC(=O)N=C2S1	> 100	> 100	> 100	–	–
